Assay results published in patent US8962664B2, “Selective glycosidase inhibitors and uses thereof” (Simon Fraser University, priority 2006, dated 2015).
pKi: −log10 of the molar value.

Legend:
O-GlcNAcase = O-GlcNAcase (Homo sapiens (Human), UniProt O60502); test: Assay for determination of KI values for inhibition of O-GlcNAcase activity; assay type: biochemical; details: pNP-GlcNAc 0.5 mM, PBS buffer pH 7.4, 37° C., Dixon plots
Method: Experimental Procedure for Kinetic Analyses: Enzymatic reactions were carried out in PBS buffer (pH 7.4) using pNP-GlcNAc as a substrate (0.5 mM) and monitored continuously at 37° C. at 400 nm using a Cary 3E UV-VIS spectrophotometer equipped with a Peltier temperature controller. Reactions were pre-heated in a 500 μL quartz cuvette for approximately 5 minutes followed by addition of 10 μL enzyme via syringe (final enzyme concentration 0.002 mg/mL). Reaction velocities were determined by linear regression of the linear region of the reaction progress curve between the first and third minutes. An inhibitor concentration range of ⅕ to 5 times K1 was used in each case.
For example, the K1 values for inhibition of O-GlcNAcase shown in Table 4 were obtained for compounds 2, 4, and 6. All K1 values were determined using linear regression of a Dixon plots.

[1] = Stability on storage neat; assay type: physicochemical; details: stored neat at 0° C. (7 d)
Method: The azide obtained as described above (200 mg, 0.81 mmol) was dissolved in 3:1 THF:H2O (5 mL) and triphenylphosphine (310 mg, 1.2 mmol) was added. The solution was then stirred overnight at room temperature. Concentration of the mixture followed by flash chromatography of the resultant residue on silica gel (MeOH:EtOAc 2:3) gave 130 mg (75% yield) of (3aR,5R,6S,7R,7aR)-5-(aminomethyl)-2-propyl-5,6,7,7a-tetrahydro-3aH-pyrano[3,2-d]thiazole-6,7-diol (51) as a colourless oil. […] (7 d). ^1H NMR (500 MHz, methanol-d4): δ 0.97 (t, 3H, J=7.4 Hz), 1.63-1.67 (m, 2H), 2.43-2.49 (m, 2H), 3.39 (ddd, 1H, J=2.5, 4.1, 9.0 Hz), 3.51 (dd, 1H, J=4.1, 9.5 Hz), 3.64 (dd, 1H, J=2.5, 12.5 Hz), 3.75 (dd, 1H, J=6.1, 12.5 Hz), 4.04 (dd, 1H, J=4.4, 4.5 Hz), 4.28 (m, 1H), 6.35 (d, 1H, J=7.0 Hz).

O-GlcNAcase, sequence (O60502 whole entry): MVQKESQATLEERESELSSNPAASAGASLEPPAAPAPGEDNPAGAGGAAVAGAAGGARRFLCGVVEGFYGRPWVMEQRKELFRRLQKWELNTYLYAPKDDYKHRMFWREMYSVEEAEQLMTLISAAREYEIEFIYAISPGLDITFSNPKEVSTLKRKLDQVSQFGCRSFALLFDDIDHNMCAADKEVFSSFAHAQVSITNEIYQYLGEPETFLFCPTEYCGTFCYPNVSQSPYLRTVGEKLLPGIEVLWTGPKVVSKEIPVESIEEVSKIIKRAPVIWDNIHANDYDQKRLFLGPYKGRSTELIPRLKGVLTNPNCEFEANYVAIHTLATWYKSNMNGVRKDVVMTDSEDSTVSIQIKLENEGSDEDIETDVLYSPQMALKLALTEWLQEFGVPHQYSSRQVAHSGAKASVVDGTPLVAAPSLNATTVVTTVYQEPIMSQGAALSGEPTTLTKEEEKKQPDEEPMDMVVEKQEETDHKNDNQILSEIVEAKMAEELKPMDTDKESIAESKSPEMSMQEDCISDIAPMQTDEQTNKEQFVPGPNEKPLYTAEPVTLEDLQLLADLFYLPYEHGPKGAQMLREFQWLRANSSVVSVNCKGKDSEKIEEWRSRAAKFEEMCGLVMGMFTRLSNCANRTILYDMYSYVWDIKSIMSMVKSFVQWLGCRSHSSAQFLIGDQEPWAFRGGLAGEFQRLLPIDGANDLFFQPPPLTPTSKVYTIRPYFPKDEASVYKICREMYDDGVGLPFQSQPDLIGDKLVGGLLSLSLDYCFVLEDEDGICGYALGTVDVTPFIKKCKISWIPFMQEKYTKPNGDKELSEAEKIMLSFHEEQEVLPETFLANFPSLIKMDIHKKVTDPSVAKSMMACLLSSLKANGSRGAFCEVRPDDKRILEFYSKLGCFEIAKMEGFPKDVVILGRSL

pKi (O-GlcNAcase)	stability on storage [1]	Structure (SMILES)
5.00	–	OC[C@H]1O[C@@H]2SC(CF)=N[C@@H]2[C@@H](O)[C@@H]1O [Compound 2, (3aR,5R,6S,7R,7aR)-2-(fluoromethyl)-5-(hydroxymethyl)-5,6,7,7a-tetrahydro-3aH-pyrano[3,2-d]thiazole-6,7-diol]
5.11	–	OC[C@H]1O[C@@H]2SC(C(F)F)=N[C@@H]2[C@@H](O)[C@@H]1O [Compound 4, (3aR,5R,6S,7R,7aR)-2-(difluoromethyl)-5-(hydroxymethyl)-5,6,7,7a-tetrahydro-3aH-pyrano[3,2-d]thiazole-6,7-diol]
5.25	–	OC[C@H]1O[C@@H]2SC(C(F)(F)F)=N[C@@H]2[C@@H](O)[C@@H]1O [Compound 6, (3aR,5R,6S,7R,7aR)-5-(hydroxymethyl)-2-(trifluoromethyl)-5,6,7,7a-tetrahydro-3aH-pyrano[3,2-d]thiazole-6,7-diol]
–	decompose slowly with time	CCCC1=N[C@@H]2[C@@H](O)[C@H](O)[C@@H](CN)O[C@@H]2S1 [Compound 51, (3aR,5R,6S,7R,7aR)-5-(aminomethyl)-2-propyl-5,6,7,7a-tetrahydro-3aH-pyrano[3,2-d]thiazole-6,7-diol]
